Data from US6737383B1, “Herbicidal oxadiazolidines” (priority 1999, dated 2004).

Columns and labels:
[1] = system: rape; experiment: Test B pre/postemergence rape; type: in vivo, Brassica napus
Summary of the method: (§1)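 Response is a visual 0-to-10 score relative to untreated plants, where 0 means no effect and 10 means complete control, taken twelve to sixteen days after application. Treatments went onto soil at planting and onto foliage of 1- to 4-leaf plants, using a surfactant-containing non-phytotoxic solvent.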

[2] = system: purple nutsedge; experiment: Test B pre/postemergence purple nutsedge; type: in vivo, Cyperus rotundus
Summary of the method: as §1

[3] = system: smallflower flatsedge; experiment: Test B flood test smallflower flatsedge; type: in vivo, Cyperus difformis
Summary of the method: (§2)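 Plants were grown to the 2-leaf stage before treatment with test chemical, then held in a greenhouse for twelve to sixteen days. Injury was visually rated against untreated controls on a 0–10 scale, where 0 is no effect and 10 is complete control.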

[4] = system: wheat; experiment: Test B pre/postemergence wheat; type: in vivo, Triticum aestivum
Summary of the method: as §1

[5] = system: morningglory; experiment: Test B pre/postemergence morningglory; type: in vivo, Ipomoea hederacea
Summary of the method: as §1

[6] = system: sugar beet; experiment: Test B pre/postemergence sugar beet; type: in vivo, Beta vulgaris
Summary of the method: as §1

[7] = system: duck salad; experiment: Test B flood test duck salad; type: in vivo, Heteranthera limosa
Summary of the method: as §2

[8] = system: crabgrass; experiment: Test B pre/postemergence crabgrass; type: in vivo, Digitaria sanguinalis
Summary of the method: as §1

[9] = system: velvetleaf; experiment: Test B pre/postemergence velvetleaf; type: in vivo, Abutilon theophrasti
Summary of the method: as §1

[10] = system: pigweed; experiment: Test B pre/postemergence pigweed; type: in vivo, Amaranthus retroflexus
Summary of the method: as §1

[11] = system: corn; experiment: Test B pre/postemergence corn; type: in vivo, Zea mays
Summary of the method: as §1

[12] = system: soybean; experiment: Test B pre/postemergence soybean; type: in vivo, Glycine max
Summary of the method: as §1

[13] = system: wild oat; experiment: Test B pre/postemergence wild oat; type: in vivo, Avena fatua
Summary of the method: as §1

[14] = system: cocklebur; experiment: Test B pre/postemergence cocklebur; type: in vivo, Xanthium strumarium
Summary of the method: as §1

[15] = system: rice; experiment: Test B flood test rice; type: in vivo, Oryza sativa
Summary of the method: as §2

[16] = system: giant foxtail; experiment: Test B pre/postemergence giant foxtail; type: in vivo, Setaria faberii
Summary of the method: as §1

[17] = Preemergence, Rate 62 g/ha, scale of 0 to 10 where 0 is no effect and 10 is complete control
[18] = Preemergence, Rate 125 g/ha, 0 is no effect, 10 is complete control
[19] = Preemergence, Rate 250 g/ha, scale 0 to 10, 0 is no effect, 10 is complete control
[20] = Preemergence, Rate 500 g/ha, scale 0 to 10 (0 no effect, 10 complete control)
[21] = Rate 62 g/ha, Postemergence, scale of 0 to 10 where 0 is no effect and 10 is complete control
[22] = Rate 125 g/ha, Postemergence, scale 0 to 10
[23] = Rate 500 g/ha, Postemergence, scale 0 to 10
[24] = Rate 62 g/ha, headed Pre-emergence (flood test species), scale 0 to 10 (0 no effect, 10 complete control)
[25] = Rate 125 g/ha, Pre-emergence, flood test species, scale 0 to 10 where 0 is no effect and 10 is complete control
[26] = Rate 250 g/ha, Pre-emergence, flood-test species, scale 0 to 10, 0 is no effect, 10 is complete control
[27] = Rate 500 g/ha, headed Pre-emergence (flood test species), scale 0 to 10 (0 no effect, 10 complete control)

COc1nc(OC)nc(N(C(=O)n2oc(=O)n(-c3c(C)cccc3C)c2=O)C(C)C)n1 [Compound 180]
0: Rape plant response rating [1, 17] | Rape plant response rating (0 to 10 scale) [1, 18] | Rape plant response rating [1, 19] | Rape plant response rating [1, 20] | Rape plant response rating [1, 21] | Rape plant response rating [1, 22] | Plant response rating (0 to 10; 0 is no effect, 10 is complete control), Rape ([1]; Rate 250 g/ha, Postemergence) | Rape plant response rating [1, 23] | Nutsedge plant response rating [2, 17] | Nutsedge plant response rating (0 to 10 scale) [2, 18] | Nutsedge plant response rating [2, 19] | Nutsedge plant response rating [2, 20] | Nutsedge plant response rating [2, 21] | Nutsedge plant response rating [2, 22] | Plant response rating (0 to 10; 0 is no effect, 10 is complete control), Nutsedge ([2]; Rate 250 g/ha, Postemergence) | Nutsedge plant response rating [2, 23] | S. Flatsedge plant response rating [3, 24] | S. Flatsedge plant response rating [3, 25] | S. Flatsedge plant response rating [3, 26] | S. Flatsedge plant response rating ([3]; Rate 500 g/ha, Pre-emergence, flood test species, scale 0 to 10 (0 no effect, 10 complete control)) | Wheat plant response rating [4, 17] | Wheat plant response rating [4, 19] | Wheat plant response rating [4, 20] | Wheat plant response rating [4, 22] | Plant response rating (0 to 10; 0 is no effect, 10 is complete control), Wheat ([4]; Rate 250 g/ha, Postemergence) | Wheat plant response rating [4, 23] | Morningglory plant response rating [5, 17] | Morningglory plant response rating (0 to 10 scale) [5, 18] | Morningglory plant response rating [5, 19] | Morningglory plant response rating [5, 20] | Morningglory plant response rating [5, 21] | Morningglory plant response rating [5, 22] | Plant response rating (0 to 10; 0 is no effect, 10 is complete control), Morningglory ([5]; Rate 250 g/ha, Postemergence) | Morningglory plant response rating [5, 23] | Sugarbeets plant response rating [6, 17] | Sugarbeets plant response rating (0 to 10 scale) [6, 18] | Sugarbeets plant response rating [6, 19] | Sugarbeets plant response rating [6, 20] | Sugarbeets plant response rating [6, 21] | Sugarbeets plant response rating [6, 22] | Plant response rating (0 to 10; 0 is no effect, 10 is complete control), Sugarbeets ([6]; Rate 250 g/ha, Postemergence) | Sugarbeets plant response rating [6, 23] | Ducksalad plant response rating [7, 24] | Ducksalad plant response rating [7, 25] | Ducksalad plant response rating [7, 26] | Plant response rating, Ducksalad [7, 27] | Crabgrass plant response rating [8, 17] | Crabgrass plant response rating (0 to 10 scale) [8, 18] | Crabgrass plant response rating [8, 19] | Crabgrass plant response rating [8, 20] | Crabgrass plant response rating [8, 21] | Crabgrass plant response rating [8, 22] | Plant response rating (0 to 10; 0 is no effect, 10 is complete control), Crabgrass ([8]; Rate 250 g/ha, Postemergence) | Crabgrass plant response rating [8, 23] | Velvetleaf plant response rating [9, 17] | Velvetleaf plant response rating [9, 19] | Velvetleaf plant response rating [9, 20] | Velvetleaf plant response rating [9, 22] | Plant response rating (0 to 10; 0 is no effect, 10 is complete control), Velvetleaf ([9]; Rate 250 g/ha, Postemergence) | Velvetleaf plant response rating [9, 23] | Redroot pigweed plant response rating [10, 17] | Redroot pigweed plant response rating (0 to 10 scale) [10, 18] | Redroot pigweed plant response rating [10, 19] | Redroot pigweed plant response rating [10, 20] | Redroot pigweed plant response rating [10, 21] | Redroot pigweed plant response rating [10, 22] | Plant response rating (0 to 10; 0 is no effect, 10 is complete control), Redroot pigweed ([10]; Rate 250 g/ha, Postemergence) | Redroot pigweed plant response rating [10, 23] | Corn plant response rating [11, 17] | Corn plant response rating (0 to 10 scale) [11, 18] | Corn plant response rating [11, 19] | Corn plant response rating [11, 20] | Corn plant response rating [11, 21] | Corn plant response rating [11, 22] | Plant response rating (0 to 10; 0 is no effect, 10 is complete control), Corn ([11]; Rate 250 g/ha, Postemergence) | Corn plant response rating [11, 23] | Soybean plant response rating [12, 17] | Soybean plant response rating (0 to 10 scale) [12, 18] | Soybean plant response rating [12, 19] | Soybean plant response rating [12, 20] | Soybean plant response rating [12, 21] | Soybean plant response rating [12, 22] | Plant response rating (0 to 10; 0 is no effect, 10 is complete control), Soybean ([12]; Rate 250 g/ha, Postemergence) | Soybean plant response rating [12, 23] | Wild oats plant response rating [13, 17] | Wild oats plant response rating [13, 19] | Wild oats plant response rating [13, 20] | Wild oats plant response rating [13, 22] | Plant response rating (0 to 10; 0 is no effect, 10 is complete control), Wild oats ([13]; Rate 250 g/ha, Postemergence) | Wild oats plant response rating [13, 23] | Cocklebur plant response rating [14, 17] | Cocklebur plant response rating (0 to 10 scale) [14, 18] | Cocklebur plant response rating [14, 19] | Cocklebur plant response rating [14, 20] | Cocklebur plant response rating [14, 21] | Cocklebur plant response rating [14, 22] | Plant response rating (0 to 10; 0 is no effect, 10 is complete control), Cocklebur ([14]; Rate 250 g/ha, Postemergence) | Cocklebur plant response rating [14, 23] | Rice plant response rating [15, 24] | Rice plant response rating [15, 25] | Rice plant response rating [15, 26] | Plant response rating, Rice [15, 27] | Giant foxtail plant response rating [16, 17] | Giant foxtail plant response rating (0 to 10 scale) [16, 18] | Giant foxtail plant response rating [16, 19] | Giant foxtail plant response rating [16, 20] | Giant foxtail plant response rating [16, 21] | Giant foxtail plant response rating [16, 22] | Plant response rating (0 to 10; 0 is no effect, 10 is complete control), Giant foxtail ([16]; Rate 250 g/ha, Postemergence) | Giant foxtail plant response rating [16, 23]
